Reference: patent US9464121B2, “Compositions and methods for treating erectile dysfunction” (priority 2007, dated 2016)
“Also recorded” adds a separate entry of the source. Structures can show the parent of a compound that is named as a salt.

Key:
C2C12 myoblasts = assay: Intracellular calcium determination with Fluo-3AM (confocal microscopy); assay type: cell-based
Method: To confirm that the f40/7841 polypeptide had no effect on calcium flux, C2C12 myoblasts were treated with f40/7841 polypeptide and intracellular calcium levels were assayed using the calcium-sensitive fluorchrome, Fluo-3AM. For the intracellular Ca^2+ measurements, a Confocal LSM 510 Meta Confocal (Zeiss, Jena, Alemania) microscope with a lasing line excitation of 488 nm was used. C2C12 cells were seeded in 60 mm culture dishes (Nalge Nunc International, Rochester, N.Y.) and cultured for 48 hours at which time each plate contained about 250,000 cells. The cells were loaded with fluorochrome in concentration of 4 μM fluo-3AM (Sigma) in 0.5% Me2SO and 0.1% of pluronic acid F-127 for 30 minutes at 37° C.; washed three times with a modified Dulbecco's solution with 10% of fetal bovine serum and returned to the incubator.
The fluorescence of Fluo-3AM was stimulated at 488 nm and measured at 515 nm using a bandpass filter. The intracellular Ca^2+ was measured for 10 seconds, followed by the addition of 1 μM f40/7841 polypeptide and 1.5 mM of carbachol. The Ca^2+ changes were monitored for 2 minutes and the images were taken every 1.5 sec. The calcium ionophore 4-Br-A23187 (5 μM) followed by 10 mM EGTA were then added to obtain the maximum calcium excitation (Fmax) and the minimum fluorescence (Fmin), respectively. The intracellular [Ca^2+] of fluorescence (F) obtained by the used f40/7841 was calculated in the following way: intracellular [Ca^2+]=Kd*(*F−F*min)/(*F*max−*F*), assuming 450 nM. *Kd* for the fluo-3AM, the concentrations were calculated in cellular populations that contained at least 10 cells.

corpus cavernosum [1] = assay: In vitro corpus cavernosum assay for smooth muscle relaxation (isolated organ chamber, phenylephrine-contracted tissue); assay type: cell-based, Wistar adult male rats
Method: The effect of polypeptides on corpus cavernosum contractile activity in vitro was analyzed in corpus cavernosum tissue harvested from Wistar adult male rats. Tissue was vertically positioned in an isolated organ chamber under the conditions described below. Adult male Wistar rats, aged 1.5-2 months and 250-350 g in weight were sacrificed by cervical dislocation and the penis was removed from the base, yielding about 2 cm of isolated tissue. The penile tissue was dissected under a Zeiss STEMI DV4 stereoscopic magnifying glass. The tunica albuginea, which protects the cavernous and spongious corpuses, was gently removed. The cavernous bodies were removed from their central position, obtaining two fragments of equal length and diameter, which were then transferred to a Tyrode physiological solution properly oxygenated (mix of 95% O2 and 5% CO2), at 37° C. at pH 7.4.
The cavernous segments were tied with silk at their distal and proximal extremes and immersed in a Tyrode physiologic solution in the chambers. The distal part was tied to the connecting rod and the proximal portion was connected to the isometric contraction transducer (TRI 201/0-25 g) connected to an analogue/digital interphase Power Lab/4SP Ad instrument, making it possible to store and analyse the registered signals by the use of Chart 5 software. Essentially, the fragments were connected to a analogic tension transducer, which transferred its signal to a Power Lab-Letica interphase, which records, graphs and stores the information generated by the physiologic preparation in force/time (g/min scale).
Prior to assaying the polypeptides, the isolated corpus cavernosum samples were stabilized as follows. After placing the corpus cavernosum in the isolated organ chamber, a 0.5 g tension at a normal velocity (1:1 proportion) was applied for one hour. During this time the basal tension and oxygenation (10 ml/min) remained constant. After the first 20 minutes, the preparation was washed using Tyrode physiologic solution, the tension was fixed and the procedure was repeated every 20 minutes for a total of 4 times. In the final washing process, in Chart 5 control system, the recording speed was modified from 10× to 1×.
The ability of f40/7841 to induce smooth muscle relaxation was assayed in the corpus cavernosum assay described in Example 2 in the presence of 50 μM phenylephrine, a pharmacological agonist of the alpha-adrenergic receptor that induces smooth muscle contraction.
To determine the relaxation potential it was necessary to induce first a maximum contractile response (control), in the presence of a drug that activates α-adrenergic receptors, phenylephrine (50 μM). The obtained results of the experimental series are statistically analyzed with a statistical significance of P<0.05, and graphed with GraphPad Prim.V.3.02 software.

[2] = biological target: T1, alpha 7 nicotinic acetylcholine receptor (α7nAch) (Homo sapiens, UniProt P36544); assay: Whole-cell patch clamp of PC12 cells engineered to express the alpha 7 nicotinic acetylcholine receptor; assay type: cell-based
T1 construct: expressed in transfected cells; host or cells: PC12 cells
T1 sequence (P36544 23-502): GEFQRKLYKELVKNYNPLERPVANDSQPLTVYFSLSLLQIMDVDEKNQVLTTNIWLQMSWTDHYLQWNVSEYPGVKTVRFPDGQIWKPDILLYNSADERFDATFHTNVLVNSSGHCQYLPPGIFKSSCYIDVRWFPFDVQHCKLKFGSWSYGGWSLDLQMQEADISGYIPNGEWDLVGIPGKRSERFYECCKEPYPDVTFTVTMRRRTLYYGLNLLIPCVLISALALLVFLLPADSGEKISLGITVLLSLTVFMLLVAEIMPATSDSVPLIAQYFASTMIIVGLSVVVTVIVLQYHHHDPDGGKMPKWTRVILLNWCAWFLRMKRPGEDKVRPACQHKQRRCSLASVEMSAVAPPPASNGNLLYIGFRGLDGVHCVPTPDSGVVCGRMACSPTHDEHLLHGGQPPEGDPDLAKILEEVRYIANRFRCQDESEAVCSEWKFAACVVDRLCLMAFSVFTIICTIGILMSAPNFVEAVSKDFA
Method: The ability of the f40/7841 polypeptide to activate nicotinic acetylcholine receptors (nAChR) was assayed by whole cell patch clamp analysis of PC12 cells that had been engineered to express the alpha 7 nicotinic acetylcholine receptor (α7nAch). PC12 cells were transfected and cultured for 48 hours in an 80% of MEM, solution that contained (mM): 150 NaCl, 5.4 KCl, 2.0 CaCl2, 1.0 MgCl2, 10 glucose and 10 Hepes (7.4), 2 mM, and 10% of fetal bovine serum at 37° C. (Trifaro et al. In vitro Cell Dev. Biol. 1990). The cells were incubated for one hour at 22° C. before starting the experiments. The current changes were detected through a whole-cell patch-clamp system through a Warner PC-501^a amplifier and an inverted Olympus 9° 70 microscope. The membrane potential was adjusted to −60 mV; the current was recorded at intervals of 5 μs and it was filtered at 2 Kh using a computer connected to a recording system through an acquisition card Digidata 9.0 (Axon Instrument, Inc) and the software PC 9 (Axon Instrument, Inc). The stock solution for the assays with the peptides were kept refrigerated at 4° C. and the micropipettes contained an internal solution of: 140 mM NaCl, 5 mM KCl, 2 mM CaCl2, 1.5 mM MgCl2, and 10 mM HEPES, pH 7.4.
The purified f40/7841 polypeptide was purified according to the method in Example 1. 0.1 mg of the polypeptide was diluted in 100 μl. of sterile PBS at pH 7.4. […]

corpus cavernosum [3] = assay: In vitro corpus cavernosum assay for smooth muscle relaxation (isolated organ chamber, phenylephrine-contracted tissue); assay type: cell-based, Wistar adult male rats; conditions: phenylephrine 5 μM, atropine 1 μM, polypeptide 1 μgml (FIG. 13)

Molecule: O=C(O)CN(CCOCCOCCN(CC(=O)O)CC(=O)O)CC(=O)O [EGTA]
- effect on ionophore-induced fluorescence spike (C2C12 myoblasts; 10 mM EGTA added after 4-Br-A23187 (FIG. 17)): abolished

Molecule: CCCc1nn(C)c2c(=O)[nH]c(-c3cc(S(=O)(=O)N4CCN(C)CC4)ccc3OCC)nc12 [sildenafil citrate, 1-[4-ethoxy-3-(6,7-dihydro-1-methyl-7-oxo-3-propyl-1H-pyrazolo[4,3-d]pyrimidin-5-yl)phenylsulfonyl]-4-methylpiperazine]
- contractile response after sildenafil citrate alone (corpus cavernosum [1]; 1 μM, after 50 μM phenylephrine, over a period of 25-30 minutes (FIG. 1)): slow decrease of the contractile response
- concentration of sildenafil citrate alone required for a relaxation rate comparable to f40/7841 plus 1 μM sildenafil citrate (corpus cavernosum [1]; after 50 μM phenylephrine, typical value): 100 µM

Molecule: C[N+](C)(C)CCOC(N)=O [carbachol]
- potassium current ([2]; 10 μM carbachol, positive control, membrane potential −60 mV (FIG. 15)): 10 pA

Molecule: CNC[C@H](O)c1cccc(O)c1 [phenylephrine]
- contractile response of corpus cavernosum (corpus cavernosum [1]; phenylephrine 50 μM (FIG. 7, FIG. 9)): phasic contractile response followed by a steadily maintained tonic response; also recorded: quick phasic contraction

Molecule: CN1[C@@H]2CC[C@H]1C[C@@H](OC(=O)C(CO)c1ccccc1)C2 (some centres unmarked) [atropine]
- tonic response to phenylephrine in the presence of atropine (corpus cavernosum [1]; atropine 1 uM added after 40 minutes of phenylephrine (FIG. 13, upper tracing)): gradually reduced over time

Molecule: CNc1c(Br)cc2oc(C[C@H]3OC4(CC[C@H]3C)O[C@H]([C@H](C)C(=O)c3ccc[nH]3)[C@H](C)C[C@H]4C)nc2c1C(=O)O (some centres unmarked) [4-Br-A23187]
- Fluo-3AM fluorescence (calcium) after ionophore (C2C12 myoblasts; 4-Br-A23187 5 μM, positive control (FIG. 17)): sharp spike of fluorescence

B1: f40/7841 (protein)
chain: GDSLDPAEFACADDIDQAELLKNNDICLQCEDLHKEGLVFSLCKTNCFSTEYFQHCVKDLEEAKKEPPE
modifications: also: blocked N-terminus, not given here
- ability to induce relaxation, atropine added prior to phenylephrine (corpus cavernosum [1]; 1 μM atropine, then phenylephrine 50 μM, polypeptide 2 μg/ml after twenty minutes (FIG. 14)): attenuated
- effect on tonic contraction (relaxation) (corpus cavernosum [1]; 2 μg/ml added after 20 minutes of 50 μM phenylephrine (FIG. 10)): rapid decrease in tonic contraction
- relaxation of contracted tissue in the presence of L-NAME (nitric oxide synthase inhibitor) (corpus cavernosum [1]; phenylephrine, then L-NAME 10 mM, then polypeptide 0.02, 0.2 or 2 μg/ml (FIG. 11, FIG. 12), listed as f40/7481): did not induce a decrease in contraction; also recorded: abolished
- contractile response on co-addition with sildenafil citrate, compared to sildenafil citrate alone (corpus cavernosum [1]; polypeptide 2 μg/ml plus 1 μM sildenafil citrate, after 50 μM phenylephrine (FIG. 1)): significant decrease in the contractile response
- calcium flux (intracellular Ca2+, Fluo-3AM fluorescence) (C2C12 myoblasts; 1 μM polypeptide and 1.5 mM carbachol, monitored for 2 minutes (FIG. 17)): did not induce calcium flux
- ability to induce relaxation in the presence of atropine (corpus cavernosum [3]): attenuated
- rapid potassium current ([2]; 0.1 μg/ml polypeptide, membrane potential −60 mV (FIG. 16, in the presence of carbachol)): 500 pA
